In patent US20130316963A1, “INNATE DEFENCE REGULATORY PEPTIDE COMPOSITIONS FOR TREATMENT OF ARTHRITIS” (UNIVERSITY OF MANITOBA, priority 2010, published 2013):

Columns and labels:
[1] = tested on: human FLS cells; assay: Cellular cytotoxicity by release of lactate dehydrogenase (LDH); format: cell-based; settings: presence and absence of cytokine stimulation, 24 hr; IDR-1002 100 μg/ml, IDR-1 200 μg/ml; data not shown
Protocol: Synovial tissues were obtained from patients with OA in accordance to a protocol by the Institutional Review Board at the University of Manitoba. FLS cells were isolated from the synovial tissues following the procedure taught by Kammouni et al. (2007, Regulation of apoptosis in fibroblast-like synoviocytes by the hypoxia-induced Bcl-2 family member Bcl-2/adenovirus E1B 19-kd protein-interacting protein 3. Arthritis Rheum. 56:2854-2863). […] Cellular cytotoxicity was evaluated by monitoring the release of lactate dehydrogenase (LDH) employing a colorimetric detection kit (Roche Diagnostics, Laval, QC, Canada).
Inflammatory cytokines TNF-α and IL-1β stimulate cells types such as FLS, chondrocytes and macrophages resulting in the production of MMP-3 in arthritic joints. […] In this study we evaluated the impact of IDR peptides on TNF-α and IL-1β-induced MMP-3 production. […] The peptides were not cytotoxic to the FLS cells in the presence and absence of cytokine stimulation, as determined by monitoring the tissue culture supernatants for the release of LDH after 24 hr of stimulation (data not shown). Tissue culture supernatants were monitored after 24 hr of stimulation for MMP-3 production by ELISA. […]

[2] = tested on: human FLS cells; assay: MMP-3 production in tissue culture supernatants of cytokine-stimulated human FLS cells (ELISA); format: cell-based; settings: 24 hr
Protocol: Synovial tissues were obtained from patients with OA in accordance to a protocol by the Institutional Review Board at the University of Manitoba. FLS cells were isolated from the synovial tissues following the procedure taught by Kammouni et al. (2007, Regulation of apoptosis in fibroblast-like synoviocytes by the hypoxia-induced Bcl-2 family member Bcl-2/adenovirus E1B 19-kd protein-interacting protein 3. Arthritis Rheum. 56:2854-2863). Briefly, the tissues were digested with 1 mg/ml collagenase and 0.05 mg/ml hyaluronidase (both obtained from Sigma-Aldrich Co., Oakville, ON, Canada) in Hanks' balanced salt solution (Gibco; Invitrogen Canada Inc., Burlington, ON, Canada) for 1-2 hours at 37° C. Cells were washed and cultured in DMEM media (Gibco) supplemented with sodium pyruvate and non-essential amino acids (referred to as complete DMEM media henceforth), containing 10% (v/v) fetal bovine serum (FBS) in a humidified incubator at 37° C. and 10% CO2. Isolated human FLS cells (ex-vivo) were seeded at 2×10^4 cells/ml, either 0.5 ml per well in 48-well tissue culture plate, or 3 ml per well in 6-well tissue culture plate as required and cultured in complete DMEM media containing 10% (v/v) FBS overnight. The following day the culture media was changed to complete DMEM containing 1% (v/v) FBS before the addition of the various stimulants. The FLS cells were not used beyond passage five. […] Cellular cytotoxicity was evaluated by monitoring the release of lactate dehydrogenase (LDH) employing a colorimetric detection kit (Roche Diagnostics, Laval, QC, Canada).
Tissue culture supernatants were harvested after stimulation of human FLS cells with various cytokines (as indicated) with and without IDR peptides after 24 hr. […] Production of MMP-3 in the tissue culture supernatants was monitored using Quantikine® human MMP-3 (total) ELISA kit (Quantikine is a registered trademark of R&D Systems, Inc. Minneapolis, Minn., USA) as per the manufacturer's instructions. Production of pro-inflammatory cytokines IL-1β, IL-6, IL-10, TNF, IL-12p70 and chemokines IL-8, RANTES, MIG, MCP-1, IP-10 in the tissue culture supernatants was determined using preconfigured multiplex BD Cytometric Bead Array (CBA) human inflammation and chemokine kits respectively, employing the FACS Calibur flow cytometer (BD Biosciences, Mississauga, ON, Canada) as per the manufacture's instructions. The concentration of the cytokines or chemokines in the tissue culture supernatants was evaluated by establishing a standard curve with serial dilutions of the recombinant human cytokines or chemokines as required. […]

Question: For VQRWLIVWRIRK (IDR-1002 peptide), which “cytotoxicity to FLS cells (release of LDH)” value [1] is on record?
Answer: not cytotoxic

Question: What about the “suppression of IL-1β-induced MMP-3” value ([2]; IDR-1002 100 μg/ml for 45 min prior to IL-1β 10 ng/ml, FIG. 2A) of the same sequence?
Answer: 80%

Question: What about the “suppression of IL-1β-induced MMP-3 production” value ([2]; IL-1β 10 ng/ml, peptide added at time of stimulation, IDR-1002 100 μg/ml, IDR-1 200 μg/ml, FIG. 1A) of the same sequence?
Answer: 70±8%

Question: And the “suppression of MMP-3 production induced by cytomix (TNF-α+IL-1β)” value ([2]; TNF-α+IL-1β 10 ng/ml each, IDR-1002 100 μg/ml, FIG. 1C)?
Answer: 56±10%

Question: What about the “MMP-3 production induced by peptide by itself” value ([2]; no cytokine, vs un-stimulated control FLS cells, IDR-1002 100 μg/ml) of the same sequence?
Answer: did not induce MMP-3 production above the background amount
